Results on 6 compounds are retold here after ChEMBL document CHEMBL1128530, “Alpha- and beta-adrenoceptors: from the gene to the clinic. 1. Molecular biology and adrenoceptor subclassification” (J Med Chem, 1995).

The term Ki denotes a dissociation constant, usually derived from enzyme kinetics or from competition with a known ligand. The low end stands for a stronger hold on the target, the high end for a looser hold on the target.

Test [1] deals with T1, Alpha-2A adrenergic receptor (Bos taurus, UniProt Q28838).
T1 sequence (Q28838 whole entry): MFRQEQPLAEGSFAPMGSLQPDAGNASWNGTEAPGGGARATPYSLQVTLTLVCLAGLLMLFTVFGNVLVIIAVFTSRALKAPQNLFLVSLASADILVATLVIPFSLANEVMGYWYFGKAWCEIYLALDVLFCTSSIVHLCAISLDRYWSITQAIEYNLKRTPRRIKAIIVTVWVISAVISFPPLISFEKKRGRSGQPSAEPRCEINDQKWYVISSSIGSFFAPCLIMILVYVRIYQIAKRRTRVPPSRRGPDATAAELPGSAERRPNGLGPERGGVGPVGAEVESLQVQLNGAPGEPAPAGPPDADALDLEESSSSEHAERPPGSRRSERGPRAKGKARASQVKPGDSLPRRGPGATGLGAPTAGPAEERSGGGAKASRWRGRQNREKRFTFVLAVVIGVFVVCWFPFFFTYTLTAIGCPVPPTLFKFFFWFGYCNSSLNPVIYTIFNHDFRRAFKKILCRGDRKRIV
Put plainly: Compound was evaluated for inhibition of binding of [3H]MK-91 to Alpha-2 adrenergic receptor in bovine pineal.

Test [2] deals with T2, Alpha-2A adrenergic receptor (Sus scrofa, UniProt P18871).
T2 sequence (P18871 whole entry): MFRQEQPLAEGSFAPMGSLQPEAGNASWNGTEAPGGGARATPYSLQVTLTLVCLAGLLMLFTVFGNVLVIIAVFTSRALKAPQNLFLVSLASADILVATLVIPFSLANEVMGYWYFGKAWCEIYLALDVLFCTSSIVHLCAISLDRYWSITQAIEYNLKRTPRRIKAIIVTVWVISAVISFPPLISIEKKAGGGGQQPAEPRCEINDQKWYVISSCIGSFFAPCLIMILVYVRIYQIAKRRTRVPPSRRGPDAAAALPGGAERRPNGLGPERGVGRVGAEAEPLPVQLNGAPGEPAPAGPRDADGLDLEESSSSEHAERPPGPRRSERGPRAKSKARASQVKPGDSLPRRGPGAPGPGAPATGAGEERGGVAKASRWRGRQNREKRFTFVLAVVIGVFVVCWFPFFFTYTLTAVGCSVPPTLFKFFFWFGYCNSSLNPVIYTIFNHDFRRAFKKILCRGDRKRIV

In test [3] the target is T3, Alpha-1D adrenergic receptor (Rattus norvegicus, UniProt P23944).
T3 sequence (P23944 whole entry): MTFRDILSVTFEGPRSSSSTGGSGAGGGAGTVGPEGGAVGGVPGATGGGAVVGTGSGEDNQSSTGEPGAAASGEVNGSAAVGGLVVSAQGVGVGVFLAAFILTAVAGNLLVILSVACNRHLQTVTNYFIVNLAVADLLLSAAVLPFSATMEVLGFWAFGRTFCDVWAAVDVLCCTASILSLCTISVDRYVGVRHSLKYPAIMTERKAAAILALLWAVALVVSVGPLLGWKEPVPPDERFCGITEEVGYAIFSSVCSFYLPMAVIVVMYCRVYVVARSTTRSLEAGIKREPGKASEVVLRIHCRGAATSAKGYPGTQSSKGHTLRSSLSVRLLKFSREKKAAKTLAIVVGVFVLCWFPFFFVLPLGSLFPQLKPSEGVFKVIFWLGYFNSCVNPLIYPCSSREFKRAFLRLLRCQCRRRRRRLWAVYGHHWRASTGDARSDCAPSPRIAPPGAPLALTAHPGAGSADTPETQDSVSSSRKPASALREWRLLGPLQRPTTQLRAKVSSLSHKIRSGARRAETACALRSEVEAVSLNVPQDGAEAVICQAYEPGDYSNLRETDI
Put plainly: Binding affinity against Alpha-1D adrenergic receptor, from rat clones.

Test [4] concerns the target T4, Alpha-2B adrenergic receptor (Homo sapiens, UniProt P18089).
T4 sequence (P18089 whole entry): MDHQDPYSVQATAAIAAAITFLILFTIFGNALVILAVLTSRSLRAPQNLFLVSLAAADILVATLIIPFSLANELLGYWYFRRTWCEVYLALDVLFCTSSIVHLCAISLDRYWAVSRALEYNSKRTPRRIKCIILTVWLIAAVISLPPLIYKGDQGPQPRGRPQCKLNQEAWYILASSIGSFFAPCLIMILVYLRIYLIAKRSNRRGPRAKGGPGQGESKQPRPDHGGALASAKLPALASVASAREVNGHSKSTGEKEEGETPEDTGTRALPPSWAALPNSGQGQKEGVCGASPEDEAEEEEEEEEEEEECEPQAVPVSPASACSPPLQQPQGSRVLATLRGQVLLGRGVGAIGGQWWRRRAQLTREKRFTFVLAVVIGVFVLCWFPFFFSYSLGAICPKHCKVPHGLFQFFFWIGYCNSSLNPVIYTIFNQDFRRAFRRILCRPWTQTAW
Put plainly: Binding affinity against Alpha-2B adrenergic receptor from human clones.

Test [5] addresses T5, Alpha-2A adrenergic receptor (Homo sapiens, UniProt P08913).
T5 sequence (P08913 whole entry): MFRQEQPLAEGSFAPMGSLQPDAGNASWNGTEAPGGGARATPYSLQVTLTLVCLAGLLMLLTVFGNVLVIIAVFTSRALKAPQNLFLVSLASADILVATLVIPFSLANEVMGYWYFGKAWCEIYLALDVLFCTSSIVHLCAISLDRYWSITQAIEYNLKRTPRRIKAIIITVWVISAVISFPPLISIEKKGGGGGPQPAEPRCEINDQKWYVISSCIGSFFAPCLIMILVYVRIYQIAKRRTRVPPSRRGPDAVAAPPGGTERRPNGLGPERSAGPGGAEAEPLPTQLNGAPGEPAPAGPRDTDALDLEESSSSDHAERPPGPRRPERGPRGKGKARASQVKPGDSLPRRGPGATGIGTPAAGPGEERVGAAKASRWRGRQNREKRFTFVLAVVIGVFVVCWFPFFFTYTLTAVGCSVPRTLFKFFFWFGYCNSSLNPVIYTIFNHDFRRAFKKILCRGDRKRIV
Kind of test: Binding affinity against Alpha-2A adrenergic receptor, from human clones.

In test [6] the target is T6, Alpha-2A adrenergic receptor (Rattus norvegicus, UniProt P22909).
T6 sequence (P22909 whole entry): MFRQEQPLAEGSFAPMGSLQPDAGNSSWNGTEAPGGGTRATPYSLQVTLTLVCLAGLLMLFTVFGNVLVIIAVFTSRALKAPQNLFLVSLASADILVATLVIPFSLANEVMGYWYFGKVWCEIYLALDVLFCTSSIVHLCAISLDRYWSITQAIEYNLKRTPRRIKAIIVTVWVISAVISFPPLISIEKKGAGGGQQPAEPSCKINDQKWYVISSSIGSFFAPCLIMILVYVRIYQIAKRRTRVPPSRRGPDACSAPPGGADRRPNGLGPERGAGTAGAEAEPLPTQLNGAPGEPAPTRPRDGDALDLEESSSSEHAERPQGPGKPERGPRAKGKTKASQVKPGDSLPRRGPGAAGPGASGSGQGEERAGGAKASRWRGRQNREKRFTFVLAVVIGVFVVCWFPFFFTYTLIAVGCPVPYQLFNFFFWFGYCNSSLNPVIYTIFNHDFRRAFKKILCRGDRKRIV
Put plainly: The compound was tested for binding affinity against alpha-2D adrenergic receptor, from rat clones.

For test [7], the target named is T7, Alpha-2C adrenergic receptor (Homo sapiens, UniProt P18825).
T7 sequence (P18825 whole entry): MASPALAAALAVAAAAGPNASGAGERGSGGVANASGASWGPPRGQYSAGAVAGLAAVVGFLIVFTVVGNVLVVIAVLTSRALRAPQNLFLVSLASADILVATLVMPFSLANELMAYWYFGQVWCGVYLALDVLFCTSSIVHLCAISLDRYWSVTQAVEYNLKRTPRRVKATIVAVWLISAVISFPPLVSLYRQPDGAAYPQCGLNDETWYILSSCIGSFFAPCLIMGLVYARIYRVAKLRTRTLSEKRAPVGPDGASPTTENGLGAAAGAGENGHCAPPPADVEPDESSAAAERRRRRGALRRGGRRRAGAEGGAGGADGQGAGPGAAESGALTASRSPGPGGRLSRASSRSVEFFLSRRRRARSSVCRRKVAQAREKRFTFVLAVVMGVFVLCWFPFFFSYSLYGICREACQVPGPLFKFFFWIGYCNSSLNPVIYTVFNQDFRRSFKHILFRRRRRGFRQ
Put plainly: Binding affinity against Alpha-2C adrenergic receptor from human clones.

The target of test [8] is T8, Alpha-1A adrenergic receptor (Bos taurus, UniProt P18130).
T8 sequence (P18130 whole entry): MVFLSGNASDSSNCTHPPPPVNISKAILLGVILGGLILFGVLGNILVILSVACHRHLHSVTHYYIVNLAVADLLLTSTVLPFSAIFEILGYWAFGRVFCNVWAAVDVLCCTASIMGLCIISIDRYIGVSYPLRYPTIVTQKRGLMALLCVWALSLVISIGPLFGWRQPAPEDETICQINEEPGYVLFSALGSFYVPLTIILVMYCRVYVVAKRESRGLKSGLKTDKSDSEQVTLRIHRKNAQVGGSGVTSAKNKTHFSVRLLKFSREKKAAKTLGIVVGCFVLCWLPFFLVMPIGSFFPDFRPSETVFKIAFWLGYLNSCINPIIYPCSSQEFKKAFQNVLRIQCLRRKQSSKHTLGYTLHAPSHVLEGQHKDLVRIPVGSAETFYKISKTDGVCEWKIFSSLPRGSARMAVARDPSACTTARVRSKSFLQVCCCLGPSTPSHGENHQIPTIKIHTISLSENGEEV
Put plainly: Binding affinity against Alpha-1A adrenergic receptor from bovine clone.

For test [9], the target named is T9, Alpha-1D adrenergic receptor (Homo sapiens, UniProt P25100).
T9 sequence (P25100 whole entry): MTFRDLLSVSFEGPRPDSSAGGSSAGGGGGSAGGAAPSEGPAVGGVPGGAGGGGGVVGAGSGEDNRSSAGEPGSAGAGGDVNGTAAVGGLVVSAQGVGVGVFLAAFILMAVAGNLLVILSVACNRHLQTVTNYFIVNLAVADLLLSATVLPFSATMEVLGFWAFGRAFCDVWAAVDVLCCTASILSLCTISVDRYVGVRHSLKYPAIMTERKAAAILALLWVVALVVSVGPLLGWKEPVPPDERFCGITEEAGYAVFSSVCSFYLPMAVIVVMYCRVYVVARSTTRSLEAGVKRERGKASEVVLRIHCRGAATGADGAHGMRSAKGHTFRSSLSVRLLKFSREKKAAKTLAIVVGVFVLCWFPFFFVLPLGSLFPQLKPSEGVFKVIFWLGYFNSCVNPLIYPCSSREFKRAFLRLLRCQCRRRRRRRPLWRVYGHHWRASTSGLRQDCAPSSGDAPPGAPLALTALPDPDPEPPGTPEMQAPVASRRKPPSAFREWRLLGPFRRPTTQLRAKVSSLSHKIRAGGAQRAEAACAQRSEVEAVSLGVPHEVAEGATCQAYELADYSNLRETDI
Put plainly: Binding affinity against Alpha-1D adrenergic receptor, from human clones.

The target of test [10] is T10, Alpha-1B adrenergic receptor (Homo sapiens, UniProt P35368).
T10 sequence (P35368 whole entry): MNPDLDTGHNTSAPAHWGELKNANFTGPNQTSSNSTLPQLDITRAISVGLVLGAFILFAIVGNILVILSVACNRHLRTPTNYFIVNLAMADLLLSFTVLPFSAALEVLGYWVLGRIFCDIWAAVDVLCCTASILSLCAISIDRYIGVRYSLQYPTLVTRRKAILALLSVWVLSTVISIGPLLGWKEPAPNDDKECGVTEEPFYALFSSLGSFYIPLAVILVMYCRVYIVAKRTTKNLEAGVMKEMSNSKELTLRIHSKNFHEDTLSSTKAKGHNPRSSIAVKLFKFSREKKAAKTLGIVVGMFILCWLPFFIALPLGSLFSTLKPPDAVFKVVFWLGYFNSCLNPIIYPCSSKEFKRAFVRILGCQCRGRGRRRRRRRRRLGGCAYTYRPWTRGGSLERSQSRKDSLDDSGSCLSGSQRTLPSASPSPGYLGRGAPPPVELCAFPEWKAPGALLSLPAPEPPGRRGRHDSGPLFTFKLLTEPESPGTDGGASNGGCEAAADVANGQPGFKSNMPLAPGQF
Kind of test: Binding affinity against Alpha-1B adrenergic receptor from human clone.

Regarding `COc1cc2nc(N3CCN(C(=O)c4ccco4)CC3)nc(N)c2cc1OC` [PRAZOSIN], the results for the Ki in test [1] and in [2] were 106 nM and 4100 nM, respectively.

`COC(=O)[C@H]1[C@H]2C[C@H]3c4[nH]c5ccccc5c4CCN3C[C@H]2CC[C@@H]1O` [RAUWOLSCINE] had an inhibition constant (Ki) in test [3] of 35 nM.

With `CC(C)=CCOc1ccc(Cl)c2c1CCN(C)CC2`, the inhibitory constant (Ki) in [4] is 142 nM; in test [5], 114 nM; in [6] it was 313 nM; in test [7], 64 nM.

Turning to `COc1cc2c(cc1OC)CN(c1cc(N)c3cc(OC)c(OC)cc3n1)CC2` [ABANOQUIL], the inhibitory constant (Ki) in test [3] and in test [8] was 0.03 nM each time.

For the compound `COc1cc2nc(N3CCN(C(=O)C4CCCO4)CC3)nc(N)c2cc1OC` (stereo unspecified) [TERAZOSIN], the Ki worked out at 3.5 nM in test [9], 35 nM in [3], 3700 nM in [5] and 26 nM in [8].

Consider `COc1cc2nc(N(C)CCCNC(=O)C3CCCO3)nc(N)c2cc1OC` (stereo unspecified) [ALFUZOSIN], for which the Ki in [9] came to 3.6 nM; in [3], 3.5 nM; in test [10] it was 2.8 nM.
